Structures are written as SMILES.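 Five concentrations, 48 hours, 96-well plates. At the GI50, growth is halved. TGI marks complete inhibition of growth.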

Some test systems named below: COLO 205 colon; MDA-MB-435; EKVX NSCLC; OVCAR-3 ovarian; K-562 leukemia; NCI-H460 lung; IGROV1 ovarian; BT-549 breast; DU-145 prostate; SF-295 CNS.
Holding throughout (test): NCI-60 cell line screen, 48 h

With `Clc1ccc(C2NN=C3c4ccccc4OCC32)cc1` (stereo not given), the TGI in the assay with COLO 205 colon is 12.4 µM; in the assay with MDA-MB-435 it was above 21.3 µM; with EKVX NSCLC it was 27.2 µM; in the assay with OVCAR-3 ovarian, 29.6 µM; with K-562 leukemia, above 22.9 µM; with NCI-H460 lung, 25.8 µM. The figures for the TGI in the assay on IGROV1 ovarian, with BT-549 breast and in the assay with DU-145 prostate were 22.3 µM, 79.3 µM and above 95.4 µM, respectively.

On to `C1=C\CCCCN2C[C@H]3CCCC/C=C\CCCCN4CC[C@@H]([C@H](CCCCCC/1)C4)[C@H](C3)C2`, for which the TGI was determined as 4.03 µM in the assay on COLO 205 colon; 3.8 µM in the assay on MDA-MB-435; 22.5 µM with EKVX NSCLC; 3.48 µM with OVCAR-3 ovarian; 3.68 µM in the assay with NCI-H460 lung; 11.3 µM in the assay with IGROV1 ovarian. Besides, the TGI in the assay with SF-295 CNS amounted to 3.53 µM; in the assay on BT-549 breast, 19.1 µM; in the assay on DU-145 prostate it was 17.2 µM.

In the case of `C#C[C@]1(O)CC[C@H]2[C@@H]3CCc4cc(OC(=O)c5cccc6cc7ccccc7nc56)ccc4[C@H]3CC[C@@]21C`, the TGI with COLO 205 colon was 43.7 µM; in the assay on MDA-MB-435, above 100 µM; with EKVX NSCLC, above 100 µM; with OVCAR-3 ovarian, 63 µM; in the assay on K-562 leukemia it was above 100 µM; in the assay on NCI-H460 lung it was above 100 µM. For the same compound, the TGI with IGROV1 ovarian is above 100 µM; in the assay with BT-549 breast it was above 100 µM; in the assay on DU-145 prostate it was 78.9 µM.

Consider `CCC1C(c2cc(OC)c(OC)c(OC)c2)c2cc3c(cc2OC1N1CCOCC1)OCO3` (stereo not given), for which the TGI in the assay on COLO 205 colon is 22.4 µM; in the assay with EKVX NSCLC it was 54.1 µM; with OVCAR-3 ovarian, 18.7 µM; with NCI-H460 lung it was 12.3 µM; in the assay with IGROV1 ovarian it was 17.4 µM; in the assay with SF-295 CNS, 8.52 µM. In addition, the TGI in the assay on BT-549 breast stood at 22 µM; in the assay on DU-145 prostate, 28.9 µM.

Regarding `Cc1cccc(NC(=S)N=Nc2c(O)[nH]c3ccccc23)c1`, the TGI in the assay on COLO 205 colon, in the assay on MDA-MB-435, with EKVX NSCLC, in the assay on OVCAR-3 ovarian, in the assay with K-562 leukemia and in the assay with NCI-H460 lung was above 100 µM throughout. Further, the TGI in the assay on IGROV1 ovarian is above 100 µM; in the assay with SF-295 CNS it was above 100 µM; with DU-145 prostate it was 70.6 µM.

For the compound `O[C@@H]1C[C@@H]2N[C@@](O)(C[C@@H]2O)[C@H]1O`, the TGI in the assay with COLO 205 colon, in the assay on MDA-MB-435, in the assay on EKVX NSCLC, with OVCAR-3 ovarian, in the assay on K-562 leukemia and in the assay on NCI-H460 lung was above 100 µM each time. In addition, the TGI with IGROV1 ovarian, in the assay with SF-295 CNS and in the assay on DU-145 prostate was above 100 µM in each case.

With `CCN(CC)C(=S)SS(=O)(=O)c1ccc([N+](=O)[O-])cc1`, the TGI in the assay with COLO 205 colon is above 100 µM; in the assay on MDA-MB-435, 54.7 µM; with EKVX NSCLC it was above 100 µM; with OVCAR-3 ovarian it was above 100 µM; in the assay on K-562 leukemia, above 100 µM; in the assay on NCI-H460 lung, above 100 µM. Besides, the TGI in the assay on SF-295 CNS is above 100 µM; with BT-549 breast, above 100 µM; in the assay with DU-145 prostate, 82.4 µM. Besides, the GI50 with MDA-MB-435 is 23.2 µM; in the assay on OVCAR-3 ovarian, 35.4 µM; in the assay on SF-295 CNS, 58.9 µM; in the assay on DU-145 prostate it was 27.2 µM.

`CCOC(=O)C(NC(=O)Nc1ccc(Cl)c(Cl)c1)C(F)(F)F` (stereo not given): the TGI with COLO 205 colon, in the assay with MDA-MB-435, in the assay on EKVX NSCLC, in the assay on K-562 leukemia, in the assay on IGROV1 ovarian and with BT-549 breast was above 100 µM throughout.

With `Cn1c(-c2cccs2)cc(-c2cccs2)c1-c1ccsc1`, the TGI is above 100 µM in the assay with COLO 205 colon; above 100 µM in the assay on MDA-MB-435; above 100 µM in the assay on EKVX NSCLC; 75.2 µM with OVCAR-3 ovarian; above 100 µM in the assay on K-562 leukemia; above 100 µM in the assay on NCI-H460 lung. The TGI in the assay on SF-295 CNS, in the assay with BT-549 breast and with DU-145 prostate was above 100 µM each time.

For the compound `CN1CN(c2ccccc2)C2(CCN(CCc3csc4ccccc34)CC2)C1=O`, the TGI with COLO 205 colon was 35.7 µM; in the assay with MDA-MB-435 it was 31.6 µM; in the assay on EKVX NSCLC, 43 µM; in the assay with OVCAR-3 ovarian, 26.6 µM; with K-562 leukemia it was 40.1 µM; with IGROV1 ovarian, 52.3 µM. For the same compound, the TGI in the assay with BT-549 breast was found to be 17.7 µM; with DU-145 prostate it was 54.2 µM.

Turning to `CSC1=C(c2ccc(Cl)cc2)SC(N2CCCCC2)N1c1ccc([N+](=O)[O-])cc1` (stereo not given), the TGI in the assay with COLO 205 colon is 81.3 µM; with MDA-MB-435, above 100 µM; in the assay on EKVX NSCLC it was above 100 µM; in the assay with OVCAR-3 ovarian, 58.1 µM; with K-562 leukemia, above 100 µM; in the assay on NCI-H460 lung it was 66.4 µM. For the same compound, the TGI in the assay on IGROV1 ovarian was above 100 µM; in the assay on SF-295 CNS, 61.2 µM; with BT-549 breast, above 100 µM.

Take `CC1C[C@]2(C)C(=O)N(c3ccccc3)C(=N)[C@@H]2N(C)c2ccccc21` (stereo not given in full): the TGI in the assay with COLO 205 colon, in the assay on MDA-MB-435, in the assay with EKVX NSCLC, in the assay with OVCAR-3 ovarian, with K-562 leukemia and in the assay with NCI-H460 lung was above 100 µM in each case. In addition, the TGI in the assay on IGROV1 ovarian, in the assay with SF-295 CNS and in the assay with DU-145 prostate was above 100 µM throughout.

With `c1cc2c(c(-c3c4ccccc4nc4ccccc34)c1)CC1(CC2)OCCO1`, the TGI with COLO 205 colon, in the assay on MDA-MB-435, in the assay on EKVX NSCLC, in the assay on OVCAR-3 ovarian, with K-562 leukemia and with NCI-H460 lung was above 100 µM each time. The TGI in the assay with IGROV1 ovarian, in the assay with SF-295 CNS and with BT-549 breast was above 100 µM each time.

As for `CC(C)=CCC/C(C)=C/CC/C(C)=C/CC/C(C)=C/CC/C(C)=C\CC/C(C)=C/CC/C(C)=C/CC/C(C)=C/Cc1cc(O)ccc1O`, the TGI with COLO 205 colon is above 100 µM; in the assay on EKVX NSCLC, 8.83 µM; with OVCAR-3 ovarian it was 1.94 µM; with K-562 leukemia, 26.4 µM; in the assay on NCI-H460 lung, 12.5 µM; in the assay with IGROV1 ovarian, 1.47 µM. Besides, the TGI in the assay on SF-295 CNS was 3.76 µM; with BT-549 breast, 5.81 µM; in the assay with DU-145 prostate, above 72.9 µM.

The values above are taken from PubChem BioAssay (NCI).
